Assay results taken from ChEMBL document CHEMBL5380773, “Novel Feleucin-K3-Derived Peptides Modified with Sulfono-γ-AA Building Blocks Targeting Pseudomonas aeruginosa and Methicillin-Resistant Staphylococcus aureus Infections” (J Med Chem, 2023).
The source made the active and inactive calls. Numbered stars: 1 amine (or outer) side, 2 acyl side, 3 side chain; on linkers, the order of the positions; unused ones are H or OH. Square brackets hold non-standard residues; d marks the D form. Peptide text beside a SMILES is read from it. * marks the point of attachment. X2 = CC(C)C[C@H](N)CN(CC(=O)[*:2])[*:1]; X1 = O=S(=O)(c1ccc(I)cc1)*

Experiments:
Staphylococcus aureus [1] = test: Antimicrobial activity against methicillin resistant Staphylococcus aureus ATCC 33591 incubated for 18 hrs by microdilution method; type: functional
Erythrocyte = test: Hemolytic activity against mouse red blood cells incubated for 1 hr; type: toxicity, cell-based
Staphylococcus aureus [2] = test: Antibiofilm activity against Staphylococcus aureus ATCC 25923 at 4 to 8 ug/ml incubated for 24 hrs by crystal violet staining based microplate reader analysis; type: functional, organism-based; details: dose 4-8 µg/ml
[3] = tested on: Staphylococcus epidermidis; test: Bactericidal activity against Staphylococcus epidermidis ATCC 12228 at 4 times MIC after 0.5 hrs; type: functional, organism-based
Staphylococcus aureus [4] = test: Bactericidal activity against Staphylococcus aureus ATCC 25923 at 4 times MIC after 2 to 4 hrs; type: functional, organism-based; details: time 2-4 hrs
Staphylococcus aureus [5] = test: Bactericidal activity against methicillin resistant Staphylococcus aureus ATCC 33591 at 4 times MIC after 2 to 4 hrs; type: functional, organism-based; details: time 2-4 hrs
Pseudomonas aeruginosa [6] = test: Antibiofilm activity against Pseudomonas aeruginosa ATCC 27853 assessed as reduction in biofilm numbers at 1 times MBIC90 incubated for 24 hrs by confocal laser scanning microscopy analysis; type: functional, organism-based
Pseudomonas aeruginosa [7] = test: Antibiofilm activity against Pseudomonas aeruginosa ATCC 27853 assessed as reduction in biofilm thickness at 1 times MBIC50 incubated for 24 hrs by confocal laser scanning microscopy analysis (reference value: 90 micrometer); type: functional
Pseudomonas aeruginosa [8] = test: Antibiofilm activity against Pseudomonas aeruginosa ATCC 27853 at MBIC50; type: functional, organism-based
[9] = tested on: Staphylococcus epidermidis; test: Antibiofilm activity against Staphylococcus epidermidis ATCC 12228 assessed as reduction in biofilm thickness; type: functional, organism-based
[10] = tested on: Staphylococcus epidermidis; test: Antibiofilm activity against Staphylococcus epidermidis ATCC 12228 assessed as reduction in biofilm mass; type: functional, organism-based
Pseudomonas aeruginosa [11] = test: Antibiofilm activity against Pseudomonas aeruginosa ATCC 27853 assessed as reduction in biofilm structures at MBIC90 by scanning electron microscopic analysis; type: functional, organism-based
Escherichia coli = test: Bactericidal activity against Escherichia coli ATCC 25922 at 1 to 2 times MIC after 2 to 3 hrs by time kill assay; type: functional, organism-based; details: time 2-3 hrs
Pseudomonas aeruginosa [12] = test: Induction of resistant development in Pseudomonas aeruginosa ATCC 27853 at sub-MIC after 20 days; type: functional, organism-based; details: time 20.0 day
Staphylococcus aureus [13] = test: Induction of resistant development in methicillin resistant Staphylococcus aureus ATCC 33591 assessed as fold increase by serial passage assay; type: functional
Staphylococcus aureus [14] = test: Antimicrobial activity against Staphylococcus aureus in presence of LPS/LTA; type: functional
Pseudomonas aeruginosa [15] = test: Antimicrobial activity against Pseudomonas aeruginosa in presence of LPS/LTA; type: functional
Cell membrane [16] = test: Induction of outer membrane disruption in Pseudomonas aeruginosa in presence of FeCl3 by NPN uptake assay; type: subcellular
Cell membrane [17] = test: Induction of outer membrane disruption in Pseudomonas aeruginosa in presence of CaCl2 by NPN uptake assay; type: subcellular
Cell membrane [18] = test: Induction of membrane disruption in Pseudomonas aeruginosa ATCC 27853 assessed as membrane shrinkage at low concentration incubated for 24 hrs by SEM analysis; type: subcellular
Cell membrane [19] = test: Induction of membrane disruption in Pseudomonas aeruginosa ATCC 27853 assessed as membrane collapse at high concentration incubated for 24 hrs by SEM analysis; type: subcellular
Cell membrane [20] = test: Induction of membrane disruption in methicillin resistant Staphylococcus aureus ATCC 33591 assessed as membrane collapse at high concentration incubated for 24 hrs by SEM analysis; type: subcellular
Cell membrane [21] = test: Induction of membrane disruption in Pseudomonas aeruginosa ATCC 27853 assessed as separation of cytoplasmic membrane at 2 to 4 times MIC incubated for 24 hrs by TEM analysis; type: subcellular
Cell membrane [22] = test: Induction of membrane disruption in Pseudomonas aeruginosa ATCC 27853 assessed as cytoplasmic leakage at 2 to 4 times MIC incubated for 24 hrs by TEM analysis; type: subcellular
Cell membrane [23] = test: Induction of membrane disruption in methicillin resistant Staphylococcus aureus ATCC 33591 assessed as membrane collapse at 2 to 4 times MIC incubated for 2 to 4 hrs by TEM analysis; type: subcellular; details: time 2-4 hrs
Cell membrane [24] = test: Induction of membrane disruption in methicillin resistant Staphylococcus aureus ATCC 33591 assessed as separation of cytoplasmic membrane at 2 to 4 times MIC incubated for 2 to 4 hrs by TEM analysis; type: subcellular; details: time 2-4 hrs
Pseudomonas aeruginosa [25] = test: Induction of ROS generation in Pseudomonas aeruginosa ATCC 27853 by DCFH-DA dye based fluorescence assay; type: functional, organism-based; details: TDE = time-dependent effect
Pseudomonas aeruginosa [26] = test: Induction of DNA leakage in Pseudomonas aeruginosa ATCC 27853 after 1 to 6 hrs; type: functional, organism-based; details: time 1-6 hrs
DNA = test: Binding affinity to Staphylococcus epidermidis DNA at 8 times MIC incubated for 30 mins; type: nucleic-acid assay
Pseudomonas aeruginosa [27] = test: Antimicrobial activity against Pseudomonas aeruginosa ATCC 27853 infected in C57BL/6J mouse assessed as reduction in lung bacterial load at 2.5 mg/kg, ip measured after 72 hrs […] (reference value: 6.4 10^3CFU/mg); type: functional
Pseudomonas aeruginosa [28] = test: Antimicrobial activity against Pseudomonas aeruginosa ATCC 27853 infected in C57BL/6J mouse assessed as reduction in TNF-alpha at 2.5 mg/kg, ip measured after 72 hrs […]; type: functional, organism-based
Staphylococcus aureus [29] = test: Antimicrobial activity against methicillin resistant Staphylococcus aureus ATCC 33591 infected in skin wound mouse model assessed as reduction in inflammatory infiltration at […] by H and E staining based assay; type: functional, organism-based; details: dose lower 10.0 mg/kg
Staphylococcus aureus [30] = test: Antimicrobial activity against methicillin resistant Staphylococcus aureus ATCC 33591 infected in skin wound mouse model assessed as reduction in skin wound bacterial load at 0.25 to 4 mg/kg measured on day 3 and 7 […]; type: functional, organism-based; details: dose 0.25-4 mg/kg, time 3-7 day
Staphylococcus aureus [31] = test: Antimicrobial activity against methicillin resistant Staphylococcus aureus ATCC 33591 infected in skin wound mouse model assessed as wound healing at 0.25 mg/kg measured upto 10 days by H and E staining based assay; type: functional, organism-based; details: time <= 10.0 day
Staphylococcus aureus [32] = test: Antimicrobial activity against methicillin resistant Staphylococcus aureus ATCC 33591 infected in skin wound mouse model assessed as reduction in ulcer at 1 to 4 mg/kg measured on day 3 and 7 by H and E staining based assay; type: functional, organism-based; details: dose 1-4 mg/kg, time 3-7 day
Staphylococcus aureus [33] = test: Antimicrobial activity against methicillin resistant Staphylococcus aureus ATCC 33591 infected in BALB/c mouse assessed as reduction in sessile bacteria attached on catheters surface at 0.25 to 1 mg/kg infected with bacteria for 2 hrs prior to compound addition on 1, 24 and 48 hrs and measured after 72 hrs […]; type: functional, organism-based; details: dose 0.25-1 mg/kg
Staphylococcus aureus [34] = test: (§1) Antimicrobial activity against methicillin resistant Staphylococcus aureus ATCC 33591 infected in BALB/c mouse assessed as biofilm eradication at 0.25 to 1 mg/kg infected with bacteria for 2 hrs prior to compound addition on 1, 24 and 48 hrs and measured after 72 hrs by H and E staining based assay; type: functional, organism-based; details: dose 0.25-1 mg/kg
Staphylococcus aureus [35] = test: as §1, with “reduction in tissue damage” for “biofilm eradication”; type: functional, organism-based; details: dose 0.25-1 mg/kg
Staphylococcus aureus [36] = test: as §1, with “reduction in inflammatory cell infiltration” for “biofilm eradication”; type: functional, organism-based; details: dose 0.25-1 mg/kg

CC(C)C[C@H](N)CN(CC(=O)N[C@@H](CCCCN)C(=O)N[C@@H](CC(C)C)C(=O)N[C@@H](CC(C)C)C(=O)N[C@@H](CCCCN)C(=O)N[C@@H](CCCCN)C(=O)N[C@@H](CC(C)C)C(=O)N[C@@H](CC(C)C)C(N)=O)S(=O)(=O)c1ccc(I)cc1 (X1-[X2]KLLKKLL-NH2)
2.8 µg/mL: MIC (Staphylococcus aureus [1])
3 10^3CFU/mg: Activity (Pseudomonas aeruginosa [27])
≥ 64 µg/mL: MIC (Pseudomonas aeruginosa [15])
active: Activity (Staphylococcus aureus [2]) | Activity [3] | Activity (Staphylococcus aureus [4]) | Activity (Staphylococcus aureus [5]) | Activity (Pseudomonas aeruginosa [6]) | Activity (Pseudomonas aeruginosa [8]) | Activity [9] | Activity [10] | Activity (Pseudomonas aeruginosa [11]) | Activity (Escherichia coli) | Activity (Pseudomonas aeruginosa [12]) | Activity (Cell membrane [16]) | Activity (Cell membrane [17]) | Activity (Cell membrane [18]) | Activity (Cell membrane [19]) | Activity (Cell membrane [20]) | Activity (Cell membrane [21]) | Activity (Cell membrane [22]) | Activity (Cell membrane [23]) | Activity (Cell membrane [24]) | Activity (Pseudomonas aeruginosa [25]) Tde | Activity (Pseudomonas aeruginosa [26]) Dose-Dependent Effect | Activity (DNA) | Activity (Pseudomonas aeruginosa [28]) | Activity (Staphylococcus aureus [29]) | Activity (Staphylococcus aureus [30]) | Activity (Staphylococcus aureus [31]) | Activity (Staphylococcus aureus [32]) | Activity (Staphylococcus aureus [33]) | Activity (Staphylococcus aureus [34]) | Activity (Staphylococcus aureus [35]) | Activity (Staphylococcus aureus [36])
256 µg/mL: MHC (Erythrocyte)
2: fold change (FC) (Staphylococcus aureus [13])
40 um: Activity (Pseudomonas aeruginosa [7])
≥ 16 µg/mL: MIC (Staphylococcus aureus [14])
